Data: patent US20230151432A1, “KIF18A INHIBITORS FOR TREATMENT OF NEOPLASTIC DISEASES” (AMGEN INC., priority 2020, published 2023)

How the values were obtained:
[1] = molecular target: T1, mouse KIF18A (residues 1-467) (Mus musculus, UniProt Q91WD7); experiment: KIF18A MT-ATPase motor activity, ADP-Glo luminescence assay (Example 19); format: biochemical; conditions: mouse KIF18A 4 nM, 30 μM ATP; read-out: IC50, KIF18A motor activity (MT-ATPase)
T1 construct: mouse KIF18A (residues 1-467, 4 nM); made in house
T1 sequence (Q91WD7 1-467): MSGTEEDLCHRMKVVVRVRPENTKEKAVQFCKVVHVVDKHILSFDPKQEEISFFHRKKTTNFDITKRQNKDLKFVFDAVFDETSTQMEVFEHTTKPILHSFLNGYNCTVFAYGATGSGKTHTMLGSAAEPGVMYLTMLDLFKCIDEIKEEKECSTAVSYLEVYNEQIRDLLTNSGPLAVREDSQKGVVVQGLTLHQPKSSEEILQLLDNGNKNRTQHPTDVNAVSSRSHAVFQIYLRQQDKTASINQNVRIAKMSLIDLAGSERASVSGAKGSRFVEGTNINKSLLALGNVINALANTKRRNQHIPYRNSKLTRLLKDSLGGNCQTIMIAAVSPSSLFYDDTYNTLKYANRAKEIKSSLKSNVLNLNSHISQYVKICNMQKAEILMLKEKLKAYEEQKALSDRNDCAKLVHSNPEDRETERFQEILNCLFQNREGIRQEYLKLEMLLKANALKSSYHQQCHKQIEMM
T1 sequence (P02550 whole entry partner, the tested form may be a part): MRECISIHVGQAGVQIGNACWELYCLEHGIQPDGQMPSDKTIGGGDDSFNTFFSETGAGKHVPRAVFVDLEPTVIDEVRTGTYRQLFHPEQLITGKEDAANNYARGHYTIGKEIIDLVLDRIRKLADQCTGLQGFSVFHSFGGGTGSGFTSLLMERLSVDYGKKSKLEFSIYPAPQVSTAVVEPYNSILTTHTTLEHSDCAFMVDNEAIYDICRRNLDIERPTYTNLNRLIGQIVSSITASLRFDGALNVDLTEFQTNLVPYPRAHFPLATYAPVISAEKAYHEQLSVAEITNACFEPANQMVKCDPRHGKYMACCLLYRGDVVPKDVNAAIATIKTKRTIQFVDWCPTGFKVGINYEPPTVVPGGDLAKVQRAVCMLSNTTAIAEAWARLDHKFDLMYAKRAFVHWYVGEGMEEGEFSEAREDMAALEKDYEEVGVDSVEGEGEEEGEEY
T1 sequence (P02554 whole entry partner, the tested form may be a part): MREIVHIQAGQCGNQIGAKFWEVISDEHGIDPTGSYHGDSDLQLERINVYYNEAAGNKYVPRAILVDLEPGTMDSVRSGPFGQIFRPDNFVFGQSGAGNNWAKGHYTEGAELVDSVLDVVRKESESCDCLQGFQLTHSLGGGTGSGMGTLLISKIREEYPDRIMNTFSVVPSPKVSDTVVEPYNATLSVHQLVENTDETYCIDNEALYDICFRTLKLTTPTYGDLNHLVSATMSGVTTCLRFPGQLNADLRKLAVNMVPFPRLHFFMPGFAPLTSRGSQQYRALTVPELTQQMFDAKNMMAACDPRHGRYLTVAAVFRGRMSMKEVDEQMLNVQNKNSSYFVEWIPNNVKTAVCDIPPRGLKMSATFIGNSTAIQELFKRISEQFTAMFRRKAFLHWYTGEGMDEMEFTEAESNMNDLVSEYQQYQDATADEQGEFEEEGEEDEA
Procedure: A trio of KIF18A inhibitors (Compound C9, Compound C11, and Compound C12) were synthesized and tested in vitro for KIF18A inhibitory activity. […] The values represent mean t SEM from three independent experiments. […] As in vivo studies in mice were planned, the mouse KIF18A inhibitory effects of Compound C9 and C12 were assayed.
KIF18A compounds C9, C11, C12 were 2-fold serially diluted over a 22-point concentration range in DMSO using 384-well plate (Corning). Recombinant truncated kinesin motor proteins (human KIF18A (residues 1-467, 4 nM), mouse KIF18A (residues 1-467, 4 nM)) were expressed and purified. ADP-Glo luminescence assay (Promega) was used to measure the MT-ATPase motor activity. Porcine brain MTs were procured from Cytoskeleton Inc. Compounds were pre-incubated for <30 min in reaction buffer (15 mM Tris, pH 7.5, 10 mM MgCl2, 0.01% Pluronic F-68, 2% DMSO, 1 μM paclitaxel, 30 μg/mL MTs) with motor proteins at concentrations indicated above, 30 μM ATP was added to initiate the enzymatic reaction for 15 min at room temperature (RT). ADP-Glo reagents were added according to manufactures protocol, the luminescence intensity proportional to ADP present was measured using an EnVision plate reader (Perkin Elmer). Raw luminescence signal data was normalized to POC (percentage of positive control) and then Activity (%) was computed [POC=100×(sample signal−negative control signal)+(positive control signal−negative control signal). Activity (%)=POC−100]. The positive control (enzyme+substrate) and negative control (substrate alone) had equivalent concentrations of DMSO. Curve-fitting and IC50 values were determined by 4-parameter non-linear regression equation (variable slope) using GraphPad Prism 7.05 (GraphPad Software).

[2] = tested on: panel of cancer cell lines including breast cancer cell lines, ovary cancer cell lines, and a prostate cancer cell line; experiment: 4-day image-based nuclear count assay (NCA), cancer cell line panel; design: species or system human
Procedure: Eg5 motor inhibitor (Ispinesib) was used as a cytotoxic control. […] Cancer cell lines were seeded in a Corning 96-well Flat Clear Bottom Black Polystyrene plate (Corning, N.Y.) in 100 μL of appropriate complete media at the appropriate density and grown for 24 hours. In one set of experiments, in preparation for cell treatment, a 2× concentration of one of: […] The compound was added to the cells with a final volume of 200 μL in complete media containing 0.5% DMSO. After 4 days (96 hours) or 6 days (144 hours) of treatment, the cells were fixed by removing 100 μL of complete media from each well and replacing it with 100 μL of 2×formaldehyde (final 4%) and incubating the plates for 15 minutes at room temperature. After fixation, the cells were permeabilized and stained in 200 μL Wash Buffer (1% BSA, 0.2% Triton X-100, 1×PBS) containing 2 μg/mL Hoechst 33342 DNA dye. The plates were sealed and incubated for 1 hour at room temperature in the dark. Cells were stored at 4° C. in the dark until data acquisition. Imaging data was acquired on Cellomics ArrayScan VTI HCS Reader (SN03090745F, ThermoFisher Scientific) using the Target Activation V4 Assay protocol (Ve 6.6.0 (Build 8153) with a 10×objective, collected 16-fields per well). […] A Mean Count EC50 value (±SD) across all sensitive cell lines was determined for each test agent.

SMILES	IC50 [1] [nM]	EC50 ([2]; Homo sapiens, 96 h, mean across the seven sensitive (TP53 mutant) of twelve cell lines, SD ±0.008) [nM]	sensitivity in nuclear count assay ([2]; five Rb-proficient lines: CAL-51, ZR-75-1, MCF-7, OVCAR-5 (TP53 WT), MDA-MB-453 (TP53 NULL))
CC(C)(C)NS(=O)(=O)c1cccc(NC(=O)c2ccc(S(=O)(=O)NC(C)(C)C)cc2N2CCC3(CC2)CC3)c1 [Compound C9, 4-(N-(tert-butyl)sulfamoyl)-N-(3-(N-(tert-butyl)sulfamoyl)phenyl)-2-(6-azaspiro[2.5]octan-6-yl)benzamide]	232	–	–
Cc1cc(NC(=O)c2ccc(NS(=O)(=O)CCO)cc2N2CCC3(CC2)CC3)nc(N2CCC(F)(F)CC2)n1 [Compound C14, N-(2-(4,4-Difluoropiperidin-1-yl)-6-methylpyrimidin-4-yl)-4-((2-hydroxyethyl)sulfonamido)-2-(6-azaspiro[2.5]octan-6-yl)benzamide]	–	56.3	insensitive (if the Span did not exceed >50%, the cell line was considered insensitive)
